According to patent publication US11912705B2, “Cathinone derivatives, pharmaceutical formulations, and methods” (The Corporation of Mercer University, priority 2020, dated 2024):
Where two headings read alike, the source gives them in different places.

Assays:
[1] = target: T1, human M5R (Homo sapiens, UniProt P08912); assay: [3H]Scopolamine radioligand competition binding at M5R
T1 construct: host or cells: HEK293 (CRL-1573, ATCC), transient
T1 sequence (P08912 1-532): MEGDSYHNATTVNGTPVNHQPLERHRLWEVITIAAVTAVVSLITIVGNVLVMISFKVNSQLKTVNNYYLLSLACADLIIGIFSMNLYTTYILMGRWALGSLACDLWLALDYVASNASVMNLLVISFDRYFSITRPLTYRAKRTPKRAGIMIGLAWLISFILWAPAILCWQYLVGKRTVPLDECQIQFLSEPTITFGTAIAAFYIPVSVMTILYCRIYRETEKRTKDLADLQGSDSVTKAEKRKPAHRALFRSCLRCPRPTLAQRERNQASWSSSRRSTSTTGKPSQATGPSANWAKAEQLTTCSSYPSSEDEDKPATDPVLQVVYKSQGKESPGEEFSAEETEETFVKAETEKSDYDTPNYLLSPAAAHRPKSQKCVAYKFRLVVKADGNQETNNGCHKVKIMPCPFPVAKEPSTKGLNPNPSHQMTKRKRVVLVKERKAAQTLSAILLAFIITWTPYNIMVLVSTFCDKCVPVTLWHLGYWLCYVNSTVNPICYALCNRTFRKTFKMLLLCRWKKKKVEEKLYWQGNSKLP
Procedure: (§1) Radioligand Competition Binding: Radioligand competition binding assays were conducted using membranes collected from transiently transfected HEK293 cells (P<20 from a procured stock, CRL-1573, ATCC, Manassas, Va., USA) as previously described (Chen, Y., et al. Drug Test Anal 11, 990-998). Briefly, cells ˜90% confluent in 10 cm plates were transfected with 5 μg human M1R, M2R, M3R, M4R or […] cDNA (cDNA resource center, Bloomsburg, Pa., USA) using a lipid-based method (LipoD293 reagent, SignaGen Laboratories, Rockville, Md., USA). Membranes were collected by centrifugation about 48 hours later and stored at −80° C. until used. […] After a 90-minute incubation at room temperature on a shaker, contents from the plates were rapidly filtered through GF/B fiberglass filter mats, pre-soaked with ice cold 50 mM Tris buffer (pH 7.4), using a Microbeta Filtermat-96 cell harvester (Perkin Elmer, Waltham, Mass., USA). Approximately 200 mL of ice cold, 50 mM Tris buffer was then vacuumed through filter mats to wash away unbound radioligand. Filter mats were dried on a hot plate and soaked in Betaplate (Perkin Elmer, Waltham, Mass., USA) scintillation fluid in plastic bags. Bags were sealed and placed in cassettes. Radioactivity was measured in a Microbeta2 Microplate Counter (Perkin Elmer, Waltham, Mass., USA), and counts per minute corresponding to each well on the plates were recorded. For full dose-response competition binding assays, increasing half-log unit concentrations of five unsubstituted PSCs were tested at M2Rs and M1Rs, with the same procedures described above.
(§2) Curve Fitting and Statistical Analyses: All data were analyzed by GraphPad 8.3.0 (San Diego, Calif., USA). Ki values were determined from data fit to both one- and two-site models. […] EC50 and IC50 values from functional assays were determined from data fit to the log(agonist) vs. response (three parameters) or log(inhibitor) vs. response (three parameters) model, respectively. Kb values were calculated from IC50 values using the Cheng-Prusoff equation with modification (see, e.g., Leff, P., and Dougall, I. G. (1993) Trends Pharmacol Sci 14, 110-112): Kb=IC50/((2+([A]/[A50])nH)1/nH−1)

[2] = target: T2, human M4R (Homo sapiens, UniProt P08173); assay: [3H]Scopolamine radioligand competition binding at M4R
T2 construct: host or cells: HEK293 (CRL-1573, ATCC), transient
T2 sequence (P08173 1-479): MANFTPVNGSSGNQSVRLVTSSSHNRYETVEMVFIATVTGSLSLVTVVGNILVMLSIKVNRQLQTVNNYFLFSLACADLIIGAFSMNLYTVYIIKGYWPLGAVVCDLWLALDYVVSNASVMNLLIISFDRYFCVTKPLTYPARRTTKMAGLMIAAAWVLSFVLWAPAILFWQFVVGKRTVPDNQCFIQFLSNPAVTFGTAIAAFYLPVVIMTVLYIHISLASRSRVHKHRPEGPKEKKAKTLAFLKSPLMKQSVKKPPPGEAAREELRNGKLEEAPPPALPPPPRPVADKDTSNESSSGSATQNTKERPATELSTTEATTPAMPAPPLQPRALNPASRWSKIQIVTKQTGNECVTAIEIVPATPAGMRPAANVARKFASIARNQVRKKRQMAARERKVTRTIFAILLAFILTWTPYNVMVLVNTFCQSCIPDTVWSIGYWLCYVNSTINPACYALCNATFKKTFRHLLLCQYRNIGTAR
Procedure: as §1, §2

[3] = target: T3, human M2R (Homo sapiens, UniProt P08172); assay: [3H]Scopolamine radioligand competition binding at M2R
T3 construct: host or cells: HEK293 (CRL-1573, ATCC), transient
T3 sequence (P08172 1-466): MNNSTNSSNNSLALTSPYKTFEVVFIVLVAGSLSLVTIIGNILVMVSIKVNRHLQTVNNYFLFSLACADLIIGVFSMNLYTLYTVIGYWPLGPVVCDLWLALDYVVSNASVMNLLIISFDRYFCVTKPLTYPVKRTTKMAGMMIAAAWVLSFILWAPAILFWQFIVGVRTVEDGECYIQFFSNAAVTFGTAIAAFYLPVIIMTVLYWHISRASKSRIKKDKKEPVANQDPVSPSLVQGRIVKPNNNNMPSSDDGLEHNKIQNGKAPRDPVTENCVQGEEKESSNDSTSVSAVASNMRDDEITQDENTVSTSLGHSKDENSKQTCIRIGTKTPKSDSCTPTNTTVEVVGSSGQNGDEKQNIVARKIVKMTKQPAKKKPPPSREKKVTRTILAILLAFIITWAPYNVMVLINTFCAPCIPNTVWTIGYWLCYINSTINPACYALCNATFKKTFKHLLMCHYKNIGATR
Procedure: as §1, §2

[4] = target: T4, human M3R (Homo sapiens, UniProt P20309); assay: biochemical; assay type: binding; settings: estimate from 1 and 10 μM concentrations (N = 2); N.C. = <5% displacement of radioligand at 10 μM; read-out: estimated pKi at M3R (converted)
T4 construct: host or cells: HEK293 (CRL-1573, ATCC), transient
Procedure: as §1, §2

[5] = target: T5, human M1R (Homo sapiens, UniProt P11229); assay: biochemical; assay type: binding
T5 construct: host or cells: HEK293 (CRL-1573, ATCC), transient
T5 sequence (P11229 1-460): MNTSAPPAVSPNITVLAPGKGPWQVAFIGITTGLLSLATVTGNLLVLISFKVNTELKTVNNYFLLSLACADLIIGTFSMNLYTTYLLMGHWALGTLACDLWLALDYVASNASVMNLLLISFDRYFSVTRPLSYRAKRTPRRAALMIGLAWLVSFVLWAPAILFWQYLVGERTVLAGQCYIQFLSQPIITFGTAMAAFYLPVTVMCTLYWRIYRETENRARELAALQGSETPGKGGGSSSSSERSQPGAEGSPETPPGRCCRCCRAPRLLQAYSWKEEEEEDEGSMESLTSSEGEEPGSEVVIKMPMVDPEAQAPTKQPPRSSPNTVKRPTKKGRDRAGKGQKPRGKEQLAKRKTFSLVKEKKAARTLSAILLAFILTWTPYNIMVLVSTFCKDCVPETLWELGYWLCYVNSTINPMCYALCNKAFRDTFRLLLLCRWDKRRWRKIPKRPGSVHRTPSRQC
Procedure: as §1, §2

[6] = tested on: mitochondrial activity and cellular membranes; settings: reported by Wojcieszak et al.; cited from earlier work
[7] = target: T6, human M1Rs (Homo sapiens, UniProt P11229); assay: M1R phosphoinositide hydrolysis (IP-One HTRF); assay type: cell-based
T6 construct: host or cells: HEK293 (CRL-1573, ATCC), transient
T6 sequence (P11229 1-460): T5 sequence (P11229 1-460)

[8] = target: T3, human M2R; assay: M2R cAMP signaling (forskolin-stimulated cAMP, oxotremorine agonist); assay type: cell-based
Procedure: The M2R coupled to Gαi/o proteins, and its agonism functioned to decrease formation of the intracellular second messenger cyclic-adenosine-monophosphate (cAMP). […] In the presence of oxotremorine, an antagonist of the M2R would be expected to reverse the effects of the agonist, thereby increasing cAMP formation.
M2R cAMP Signaling: cAMP measurements were performed with the cAMP Hunter eXpress® CHRM2 CHO-K1 GPCR assay (Eurofins DiscoveRx, Fremont, Calif., USA) according to the manufacturer's protocol. Briefly, in the provided 96-well tissue culture-treated plate, 100 μL of human M2R expressing CHO-K1 cells were seeded in cell plating reagent and incubated (37° C., 5% CO2, 95% humidity) overnight. Cell plating reagent was replaced with 30 μL of cell assay buffer the next day. For agonist stimulation, cells were treated with increasing half-log unit concentrations of oxotremorine in the presence of 10 μM forskolin, followed by incubation for 30 minutes. A cAMP antibody, cAMP working detection solution and enzyme acceptor solution were then added according to the protocol, and the final chemiluminescent signals were detected by a Mithras LB 940 microplate reader (Berthold Technologies, Bad Wildbad, Germany). Antagonist tests were run by pretreating cells with increasing half-log unit concentrations of α-PHP, followed by incubation for one hour. Cells were then treated with EC80 concentration of oxotremorine (130 nM) and 10 μM forskolin. The same incubation and detection procedure used for agonist assays was used for the remaining steps.
as §2

[9] = target: T7, M2Rs (Homo sapiens, UniProt P08172); assay: M2R β-arrestin recruitment; assay type: cell-based
T7 sequence (P08172 1-466): T3 sequence (P08172 1-466)
From the text: Data are shown as normalized means (±SEM) of two, independent determinations, with oxotremorine tested at each concentration in duplicate and α-PHP tested in quadruplicate. [*Basal signaling is defined as the normalized RLU emitted by untreated cells.]

[10] = 42 cases of intoxication, Beck et al. 2016; cited from earlier work
[11] = estimated pKi at M2R, estimate from 1 and 10 μM concentrations (N = 2), N.C. = <5% displacement of radioligand at 10 μM
[12] = estimate from 1 and 10 μM concentrations (N = 2), N.C. = <5% displacement of radioligand at 10 μM, read-out: estimated pKi at M1R (converted)
[13] = pKi at M2R, full dose-response [3H]Scopolamine competition binding, α-PPP and α-PBP interpolated
[14] = full dose-response [3H]Scopolamine competition binding, α-PPP and α-PBP interpolated, read-out: pKi at M1R (converted)

T4 sequence (P20309 whole entry): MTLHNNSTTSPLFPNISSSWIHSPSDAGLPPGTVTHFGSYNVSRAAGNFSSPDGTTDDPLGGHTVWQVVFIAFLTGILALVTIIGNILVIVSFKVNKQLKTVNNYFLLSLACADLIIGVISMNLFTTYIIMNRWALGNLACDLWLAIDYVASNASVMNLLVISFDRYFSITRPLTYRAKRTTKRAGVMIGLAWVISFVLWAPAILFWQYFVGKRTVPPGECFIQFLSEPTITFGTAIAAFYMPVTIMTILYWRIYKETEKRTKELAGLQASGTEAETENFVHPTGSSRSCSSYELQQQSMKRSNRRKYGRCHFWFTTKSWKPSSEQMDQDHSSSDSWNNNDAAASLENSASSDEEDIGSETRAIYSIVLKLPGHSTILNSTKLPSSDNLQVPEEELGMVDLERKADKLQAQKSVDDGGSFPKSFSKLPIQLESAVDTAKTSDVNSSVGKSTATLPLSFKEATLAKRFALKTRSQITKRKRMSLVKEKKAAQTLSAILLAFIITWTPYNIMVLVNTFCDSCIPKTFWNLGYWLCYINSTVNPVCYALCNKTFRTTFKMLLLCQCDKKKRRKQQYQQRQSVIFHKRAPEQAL

With `CCC(C(=O)c1ccc2c(c1)OCO2)N1CCCC1` (stereo not drawn) [MDPBP, 3,4-Methylenedioxy-α-pyrrolidinobutiophenone] the Ki [1] was 18.2 µM, the Ki [2] was 10.2 µM and the Ki [3, 11] was 12.6 µM. For the same compound, the Ki [4] was 14.5 µM.
In the case of `CCCCC(C(=O)c1ccc2c(c1)OCO2)N1CCCC1` (stereo not drawn) [MDPHP, 3,4-Methylenedioxy-α-pyrrolidinohexiophenone], the Ki [1] is reported as 7.94 µM, the Ki [2] is reported as 12.9 µM and the Ki [3, 11] is reported as 5.01 µM. For the same compound, the Ki ([5]; estimate from 1 and 10 μM screens, read-out: estimated Ki at M1Rs) was 3.63 µM and the Ki [4] was 25.7 µM.
For `CCCCCC(C(=O)c1ccc2c(c1)OCO2)N1CCCC1` (stereo not drawn) [MDPHPP, 3,4-Methylenedioxy-α-pyrrolidinoheptaphenone], the Ki [1] was 5.62 µM, the Ki [2] was 33.1 µM and the Ki [3, 11] was 12 µM. It also gave a Ki [5, 12] of 6.03 µM and a Ki [4] of 36.3 µM.
For `CCCC(C(=O)c1ccc2c(c1)OCO2)N1CCCC1` (centres unmarked) [MDPV, 3,4-Methylenedioxypyrovalerone], the “cytotoxicity (mitochondrial activity, cellular membrane damage)” value (“cytotoxicity” below) [6] is given as “this effect was not observed”, the Ki [1] is given as 6.31 µM and the Ki [2] is given as 8.91 µM. For the same compound, the Ki [3, 11] was 13.8 µM, the Ki [5, 12] was 8.71 µM and the Ki [4] was 70.8 µM.
For `CNC(C)C(=O)c1ccccc1` (centres unmarked) [methcathinone], the “cytotoxicity” value [6] is listed as “these toxic effects were not observed”.
In the case of `O=C1CCCN1CC#CCN1CCCC1` [oxotremorine, Oxotremorine], the “EC80, IP1 production” value [7] is reported as 0.5 µM, the “pEC, IP1 production” value [7] is reported as 7.21±0.20 and the “pKi High at M2R” value ([3]; two-site model) is reported as 7.92±0.40. The “pKi Low at M2R” value ([3]; two-site model) was 6.15±0.10, the “pEC50, decrease of forskolin-stimulated cAMP production” value ([8]; 10 μM forskolin) was 7.54±0.12 and the EC50 ([8]; 10 μM forskolin, read-out: EC50, decrease of forskolin-stimulated cAMP production) was 0.029 µM. The “EC80, inhibition of cAMP formation” value ([8]; forskolin-stimulated) was 0.13 µM, the “pEC50, β-arrestin recruitment” value [9] was 5.71±0.11 and the “pKi High at M1R” value [5] was 7.62±0.36. For the same compound, the “pKi Low at M1R” value [5] was 5.41±0.04.
For `CCC(C(=O)c1ccccc1)N1CCCC1` (stereo not drawn) [α-PBP, α-Pyrrolidinobutiophenone], the Ki [3, 13] was 39.8 µM and the Ki [5, 14] was 75.9 µM.
With `CCCCCC(C(=O)c1ccccc1)N1CCCC1` (stereo not drawn) [α-PHPP, α-Pyrrolidinoheptaphenone] the Ki [1] was 1.15 µM, the Ki [2] was 1.38 µM and the Ki [3, 13] was 0.661 µM. It also gave a Ki [5, 14] of 1.95 µM and a Ki [4] of 1.12 µM.
For `CC(C(=O)c1ccccc1)N1CCCC1` (stereo not drawn) [α-PPP, α-Pyrrolidinopropiophenone], the Ki ([3]; Ki at M2Rs, full dose-response, interpolated) was 73 µM, the Ki [3, 13] was 75.9 µM and the Ki [5, 14] was 195 µM.
For `CCCCCCC(C(=O)c1ccccc1)N1CCCC1` (stereo not drawn) [α-PV9, α-Pyrrolidinooctanophenone], the “cytotoxicity” value [6] is given as “potently decreased mitochondrial activity, and severely damaged cellular membranes”.
For `CCCC(C(=O)c1ccccc1)N1CCCC1` (stereo not drawn) [α-PVP, α-Pyrrolidinopentiophenone], the Ki [1] is listed as 4.17 µM, the “patients presenting with tachycardia” value [10] is listed as 80% and the Ki [2] is listed as 8.13 µM. For the same compound, the “fold increase in M2R affinity compared to α-PBP” value [3] was 49 fold, the “fold increase in M2R affinity compared to α-PPP” value [3] was 89 fold and the Ki ([3]; Ki at M2Rs, full dose-response [3H]Scopolamine competition binding) was 0.824 µM. The Ki [5, 14] was 5.13 µM and the Ki [4] was 6.03 µM.
